US20250074891A1 (Anaxis Pharma Pty Ltd., priority 2021, published 2025)

Tests used:
endogenous MLKL in U937 = endogenous MLKL in U937 (Homo sapiens (Human), UniProt Q8NB16); test: Degradation assay: degradation of endogenous MLKL in human cells (Western blot); conditions: 24 h incubation, read-out: Degradation of endogenous MLKL in U937 (DC50 cell-based assay in μM)
Method: DEGRADATION ASSAY: Screening Compounds Procedure to Evaluate the Activity of Compounds in Degrading Endogenous MLKL in Human Cell
The human monocyte cell line (U937) was seeded on the day of the experiment in a 24-well plate at a cell density of 5*10^5 cells per well in a volume of 0.5 mL per well.
The compound was diluted in DMSO with a starting concentration of 10 mM and titrated stepwise with a dilution of 1:5. 0.5 μL of the compound dilution was added to the appropriate well to achieve a final concentration of 10; 2; 0.4; 0.08 and 0.016 μM. A DMSO only well was included as control.
The cells were incubated for 24 h in the presence of the compound at 37° C. and 10% CO2.
After the 24 h incubation period, the medium was removed and cells washed with 0.5 mL PBS. The cells were then lysed directly in 60 μL of 1×SDS gel loading buffer.
The cell lysate was heat-denatured at […] for 10 min. 10 μL of lysate per well were run on 18-well 4-15% Criterion TGX stain free gels (BIO-RAD). The proteins were then transferred onto nitrocellulose membrane with a wet transfer protocol in the Criterion Blotter (BIO-RAD).
Membranes were blocked with 5% skim milk in TBST. Primary antibody against MLKL (clone 3H1, MABC604 Merck) was used at 1:2000 dilution in TBST with 1% BSA and left shaking over night at 4° C. After washes with TBST, the membranes were incubated with goat anti-rat IgG HRP-conjugated antibody (Southern Biotech) in 1% skim milk TBST at 1:10000 dilution for 1 h at room temperature. After TBST washes the bands were imaged on the ChemiDoc MP Imaging Systm (BIO-RAD) with Immobilion Western Chemiluminescent HRP Substrate Forte (Millipore). The loading control GAPDH was probed for with rabbit anti-GAPDH (CST 14C10) at 1:2000 dilution in 1% BSA TBST over night at 4° C. TBST washes were followed by incubation with goat anti-rabbit IgG HRP-conjugated antibody (Southern Biotech) in 1% skim milk TBST at 1:10000 dilution for 1 h at room temperature followed by TBST washes. The signal was detected as described above.
The band intensity was measured in the ImageLab Software (BIO-RAD) and the MLKL values adjusted for loading with GAPDH. The percentage of degradation was calculated by normalizing the compound treated values to the DMSO only control.

U937 cells = test: Counter screen: cell viability without TSQ cocktail (off-target effect); set-up: species or system human; conditions: Homo sapiens, U-937, Table 38, read-out: Off-target effect (IC50 cell-based assay)
Method: Counter screen: In parallel, all compounds were tested for their ability to affect cell viability. The same U937 cells were treated with compound in DMSO without the TSQ cocktail. This counter screen enabled evaluation of off-target effects. In this case, cell viability was measured by CelltiterGlo.

MLKL (full length) = MLKL (full length) (Homo sapiens (Human), UniProt Q8NB16); test: KINOMEscan binding assay, MLKL (full length); conditions: Table 36
Method: Kinase assays. For most assays, kinase-tagged T7 phage strains were grown in parallel in 24-well blocks in an E. coli host derived from the BL21 strain. E. coli were grown to log-phase and infected with T7 phage from a frozen stock (multiplicity of infection=0.4) and incubated with shaking at 32° C. until lysis (90-150 minutes).
The Hill Slope was set to −1.

[1] = tested on: U937 human histiocytic leukemia cell line; test: Cellular assay: inhibition of TSQ induced necroptosis (CellTitre-Glo); conditions: Homo sapiens, U-937; U937 cells, TSQ cocktail, 48 hours, Table 38; read-out: Inhibition of TSQ-induced necroptosis (IC50 cell-based assay)
In short: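 U937 cells (20,000/well) pre-dosed with compound (10-point, 1:3 from 36 μM, 0.3% DMSO), then TSQ (hTNF-Fc 100 ng/ml, Smac mimetic 500 nM, Q-VD-OPh 10 μM) for 48 h at 37 °C. Viability by CellTiter-Glo luminescence, normalised to DMSO (100%) and DMSO+TSQ (0%); IC50 from 4-parameter fit.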

Sequence of MLKL (full length) (Q8NB16 whole entry): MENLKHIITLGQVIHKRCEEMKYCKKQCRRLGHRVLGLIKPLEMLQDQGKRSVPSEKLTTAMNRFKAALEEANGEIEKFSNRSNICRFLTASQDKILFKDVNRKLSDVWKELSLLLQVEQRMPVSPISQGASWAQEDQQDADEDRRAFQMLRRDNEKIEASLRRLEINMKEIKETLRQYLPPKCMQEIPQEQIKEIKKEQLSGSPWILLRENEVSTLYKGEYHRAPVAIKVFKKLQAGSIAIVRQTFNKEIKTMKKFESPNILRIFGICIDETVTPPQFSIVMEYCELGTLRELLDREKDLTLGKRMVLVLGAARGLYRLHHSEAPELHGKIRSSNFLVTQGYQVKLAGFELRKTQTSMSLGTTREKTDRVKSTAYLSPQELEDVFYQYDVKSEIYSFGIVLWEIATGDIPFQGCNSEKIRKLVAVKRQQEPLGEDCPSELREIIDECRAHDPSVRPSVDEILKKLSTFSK
Sequence of endogenous MLKL in U937 (Q8NB16 whole entry): as above

DC50 (endogenous MLKL in U937) [µM]	Kd (MLKL (full length)) [nM]	Compound	IC50 (U937 cells) [nM]	IC50 [1] [nM]
1 to 10	< 10	Cc1ncsc1-c1ccc(CNC(=O)[C@@H]2C[C@@H](O)CN2C(=O)[C@@H](NC(=O)CCCCCCn2ccc(Nc3[nH]nc(-c4ccc(NS(=O)(=O)C(F)F)c(O[C@@H](C)c5ccc(F)cc5)c4)c3C(N)=O)n2)C(C)(C)C)cc1 [Compound 1040, 3-[4-(difluoromethanesulfonamido)-3-[(1S)-1-(4-fluorophenyl)ethoxy]phenyl]-5-{[1-(6-{[(2S)-1-[(2S,4R)-4-hydroxy-2-({[4-(4-methyl-1,3-thiazol-5-yl)phenyl]methyl}carbamoyl)pyrrolidin-1-yl]-3,3-dimethyl-1-oxobutan-2-yl]carbamoyl}hexyl)-1H-pyrazol-3-yl]amino}-1H-pyrazole-4-carboxamide]	> 10000	< 1000
1 to 10	< 10	Cc1ncsc1-c1ccc(CNC(=O)[C@@H]2C[C@@H](O)CN2C(=O)[C@@H](NC(=O)CCCCCCCn2ccc(Nc3[nH]nc(-c4ccc(NS(=O)(=O)C(F)F)c(O[C@@H](C)c5ccc(F)cc5)c4)c3C(N)=O)n2)C(C)(C)C)cc1 [Compound 1042, 3-[4-(difluoromethanesulfonamido)-3-[(1S)-1-(4-fluorophenyl)ethoxy]phenyl]-5-{[1-(7-{[(2S)-1-[(2S,4R)-4-hydroxy-2-({[4-(4-methyl-1,3-thiazol-5-yl)phenyl]methyl}carbamoyl)pyrrolidin-1-yl]-3,3-dimethyl-1-oxobutan-2-yl]carbamoyl}heptyl)-1H-pyrazol-3-yl]amino}-1H-pyrazole-4-carboxamide]	1000 to 10000	< 1000
< 1	< 10	CCS(=O)(=O)Nc1ccc(-c2n[nH]c(Nc3ccc(C(=O)OCCCC(=O)N[C@H](C(=O)N4C[C@H](O)C[C@H]4C(=O)NCc4ccc(-c5scnc5C)cc4)C(C)(C)C)cn3)c2C(N)=O)cc1O[C@@H](C)c1ccc(F)cc1 [Compound 1043, 3-{[(2S)-1-[(2S,4R)-4-hydroxy-2-({[4-(4-methyl-1,3-thiazol-5-yl)phenyl]methyl}carbamoyl)pyrrolidin-1-yl]-3,3-dimethyl-1-oxobutan-2-yl]carbamoyl}propyl 6-[(4-carbamoyl-3-{4-ethanesulfonamido-3-[(1S)-1-(4-fluorophenyl)ethoxy]phenyl}-1H-pyrazol-5-yl)amino]pyridine-3-carboxylate]	> 10000	< 1000
< 1	< 10	Cc1ncsc1-c1ccc(CNC(=O)[C@@H]2C[C@@H](O)CN2C(=O)[C@@H](NC(=O)c2ccc(Cn3ccc(Nc4[nH]nc(-c5ccc(NS(=O)(=O)C(F)F)c(O[C@@H](C)c6ccc(F)cc6)c5)c4C(N)=O)n3)cc2)C(C)(C)C)cc1 [Compound 1045, 3-[4-(difluoromethanesulfonamido)-3-[(1S)-1-(4-fluorophenyl)ethoxy]phenyl]-5-({1-[(4-{[(2S)-1-[(2S,4R)-4-hydroxy-2-({[4-(4-methyl-1,3-thiazol-5-yl)phenyl]methyl}carbamoyl)pyrrolidin-1-yl]-3,3-dimethyl-1-oxobutan-2-yl]carbamoyl}phenyl)methyl]-1H-pyrazol-3-yl}amino)-1H-pyrazole-4-carboxamide]	> 10000	< 1000
< 1	< 10	Cc1ncsc1-c1ccc(CNC(=O)[C@@H]2C[C@@H](O)CN2C(=O)[C@@H](NC(=O)CCCCCOc2ccc(Nc3[nH]nc(-c4ccc(NS(=O)(=O)C(F)F)c(O[C@@H](C)c5ccc(F)cc5)c4)c3C(N)=O)nc2)C(C)(C)C)cc1 [Compound 1048, 3-[4-(difluoromethanesulfonamido)-3-[(1S)-1-(4-fluorophenyl)ethoxy]phenyl]-5-({5-[(5-{[(2S)-1-[(2S,4R)-4-hydroxy-2-({[4-(4-methyl-1,3-thiazol-5-yl)phenyl]methyl}carbamoyl)pyrrolidin-1-yl]-3,3-dimethyl-1-oxobutan-2-yl]carbamoyl}pentyl)oxy]pyridin-2-yl}amino)-1H-pyrazole-4-carboxamide]	> 10000	< 1000
1 to 10	10 to 1000	Cc1ncsc1-c1ccc(CNC(=O)[C@@H]2C[C@@H](O)CN2C(=O)[C@@H](NC(=O)CCCCOC(=O)c2ccc(Nc3[nH]nc(-c4ccc(NS(=O)(=O)C(F)F)c(O[C@@H](C)c5ccc(F)cc5)c4)c3C(N)=O)nc2)C(C)(C)C)cc1 [Compound 1051, 4-{[(2S)-1-[(2S,4R)-4-hydroxy-2-({[4-(4-methyl-1,3-thiazol-5-yl)phenyl]methyl}carbamoyl)pyrrolidin-1-yl]-3,3-dimethyl-1-oxobutan-2-yl]carbamoyl}butyl 6-({4-carbamoyl-3-[4-(difluoromethanesulfonamido)-3-[(1S)-1-(4-fluorophenyl)ethoxy]phenyl]-1H-pyrazol-5-yl}amino)pyridine-3-carboxylate]	> 10000	1000 to 10000
1 to 10	< 10	Cc1ncsc1-c1ccc(CNC(=O)[C@@H]2C[C@@H](O)CN2C(=O)[C@@H](NC(=O)CCCCOC(=O)c2ccc(Nc3[nH]nc(-c4ccc(NS(=O)(=O)C(F)F)c(F)c4)c3C(N)=O)nc2)C(C)(C)C)cc1 [Compound 1053]	> 10000	1000 to 10000
< 1	< 10	CCS(=O)(=O)Nc1ccc(-c2n[nH]c(Nc3ccc(C(=O)OCCCCCC(=O)N[C@H](C(=O)N4C[C@H](O)C[C@H]4C(=O)NCc4ccc(-c5scnc5C)cc4)C(C)(C)C)cn3)c2C(N)=O)cc1O[C@@H](C)c1ccc(F)cc1 [Compound 1057, 5-{[(2S)-1-[(2S,4R)-4-hydroxy-2-({[4-(4-methyl-1,3-thiazol-5-yl)phenyl]methyl}carbamoyl)pyrrolidin-1-yl]-3,3-dimethyl-1-oxobutan-2-yl]carbamoyl}pentyl 6-[(4-carbamoyl-3-{4-ethanesulfonamido-3-[(1S)-1-(4-fluorophenyl)ethoxy]phenyl}-1H-pyrazol-5-yl)amino]pyridine-3-carboxylate]	> 10000	< 1000

Compound	DC50 (endogenous MLKL in U937) [µM]	Kd (MLKL (full length)) [nM]	IC50 (U937 cells) [nM]	IC50 [1] [nM]
CCS(=O)(=O)Nc1ccc(-c2n[nH]c(Nc3ccc(C(=O)OCC(=O)N[C@H](C(=O)N4C[C@H](O)C[C@H]4C(=O)NCc4ccc(-c5scnc5C)cc4)C(C)(C)C)cn3)c2C(N)=O)cc1O[C@@H](C)c1ccc(F)cc1 [Compound 1041, {[(2S)-1-[(2S,4R)-4-hydroxy-2-({[4-(4-methyl-1,3-thiazol-5-yl)phenyl]methyl}carbamoyl)pyrrolidin-1-yl]-3,3-dimethyl-1-oxobutan-2-yl]carbamoyl}methyl 6-[(4-carbamoyl-3-{4-ethanesulfonamido-3-[(1S)-1-(4-fluorophenyl)ethoxy]phenyl}-1H-pyrazol-5-yl)amino]pyridine-3-carboxylate]	< 1	< 10	> 10000	< 1000
Cc1ncsc1-c1ccc(CNC(=O)[C@@H]2C[C@@H](O)CN2C(=O)[C@@H](NC(=O)CN2CCC(Oc3ccc(Nc4[nH]nc(-c5ccc(NS(=O)(=O)C(F)F)c(O[C@@H](C)c6ccc(F)cc6)c5)c4C(N)=O)nc3)CC2)C(C)(C)C)cc1 [Compound 1050, 3-[4-(difluoromethanesulfonamido)-3-[(1S)-1-(4-fluorophenyl)ethoxy]phenyl]-5-[(5-{[1-({[(2S)-1-[(2S,4R)-4-hydroxy-2-({[4-(4-methyl-1,3-thiazol-5-yl)phenyl]methyl}carbamoyl)pyrrolidin-1-yl]-3,3-dimethyl-1-oxobutan-2-yl]carbamoyl}methyl)piperidin-4-yl]oxy}pyridin-2-yl)amino]-1H-pyrazole-4-carboxamide]	< 1	10 to 1000	> 10000	1000 to 10000
